From patent publication US9751881B2, “Inhibitors of the renal outer medullary potassium channel” (Merck Sharp & Dohme Corp., priority 2013, dated 2017)
Structures can show the parent of a compound that is named as a salt.

biological target: hROMK (hKir1.1) (Homo sapiens (Human), UniProt P48048); experiment: Thallium Flux Assay (ROMK channel functional thallium flux, FLIPR-Tetra); assay type: cell-based; conditions: HEK293 cells stably expressing hROMK (hKir1.1); unit not given in Table 4 (IC50 potencies less than 1 μM); read-out: ROMK TI IC50
Method: Cell Culture Conditions—HEK293 cells stably expressing hROMK (hKir1.1) were grown at 37° C. in a 10% CO2 humidified incubator in complete growth media: Dulbecco's Modified Eagle Medium supplemented with non-essential amino acids, Penicillin/Streptomycin/Glutamine, G418 and FBS. At >80% confluency, the media was aspirated from the flask and rinsed with 10 mL calcium/magnesium-free PBS. […] To dislodge the cell, the side of the flask was gently banged with one's hand. The cells completely titrated and then the cells were transferred to 25 mL complete media, centrifuged at 1,500 rpm for 6 min followed by resuspension in complete growth media and determine cell concentration. […] Under ideal growth conditions and appropriate tissue culture practices, this cell line is stable for 40-45 passages.
FluxOR Kit Components (Invitrogen F10017)
• FluxOR™ Reagent (Component A) • FluxOR™ Assay Buffer (Component B)—10× Concentrate • PowerLoad™ Concentrate (Component C)—100× Concentrate • Probenecid (Component D)—Lyophilized sample is kept at −20° C. Water soluble, 100× after solubilization in 1 mL water. […] Store at 4° C. • Thallium sulfate (Tl2SO4) Concentrate (Component G)—50 mM in water. […] Can be stored at room temperature • Stimulant Buffer (prepared at 5× final concentration in 1× FluxOR™Chloride-Free Buffer): 7.5 mM thallium sulfate and 0.75 mM potassium sulfate (to give a final assay concentration of 3 mM Thallium/0.3 mM potassium). Store at 4° C. when not in use. If kept sterile, this solution is good for months.
• 1. Seed HEK-hKir1.1 cells (50 μl at 20,000 cells/well) in 384-well PDL coated Microplates • 2. Allow cells to adhere overnight in humidified 37° C./10% CO2 incubator • 3. Completely remove cell growth media from microplate and replace with 25 μl loading buffer • 4. Incubate Microplate at room temperature, protected form light, for 90 min • 5. Remove loading buffer and replace with 25 μl 1× Assay Buffer±test compound. • 6. Incubate microplate at room temperature, protected from light, for 30 min • 7. […] Excitation=400 nm, Emission=460 & 580 nm. Collect data for ˜10 min.
Data Calculation—The fluorescence intensity of wells containing 3 μM of a standard control ROMK inhibitor of the present invention was used to define the ROMK-sensitive component of thallium flux. Fluorescence in the presence of test compounds was normalized to control values to provide % fluorescence change.

Sequence of hROMK (hKir1.1) (P48048 whole entry): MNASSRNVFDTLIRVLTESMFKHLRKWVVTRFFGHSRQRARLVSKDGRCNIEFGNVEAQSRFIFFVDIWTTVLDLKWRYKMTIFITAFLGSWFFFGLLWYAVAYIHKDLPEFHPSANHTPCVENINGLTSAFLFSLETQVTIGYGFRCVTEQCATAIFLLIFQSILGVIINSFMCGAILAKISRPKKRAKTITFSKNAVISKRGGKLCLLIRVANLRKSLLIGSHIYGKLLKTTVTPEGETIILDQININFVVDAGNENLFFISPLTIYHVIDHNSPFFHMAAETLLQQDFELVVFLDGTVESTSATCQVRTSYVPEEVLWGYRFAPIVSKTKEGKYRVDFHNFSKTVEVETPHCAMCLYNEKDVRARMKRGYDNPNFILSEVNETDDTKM

| Structure (SMILES) | IC50 [µM] |
| --- | --- |
| Cc1c([C@@H](O)CN2CCC3(CC2)CCN(c2ccc(C#N)nc2)C3)ccc2c1COC2=O [Example 87] | 0.0887 |
| CCS(=O)(=O)c1cnc(N2CCC3(CCN(C[C@H](O)c4ccc5c(c4C)COC5=O)CC3)C2)cn1 [Example 63, 5-[(1R)-2-{2-[5-(Ethylsulfonyl)pyrazin-2-yl]-2,8-diazaspiro[4.5]dec-8-yl}-1-hydroxyethyl]-4-methyl-2-benzofuran-1(3H)-one hydrochloride] | 0.0833 |
| Cc1c([C@@H](O)CN2CCC3(CC2)CC(=O)N(c2ccc4c(c2)CCS4(=O)=O)C3)ccc2c1COC2=O [Example 66, 2-(1,1-Dioxido-2,3-dihydro-1-benzothiophen-5-yl)-8-[(2R)-2-hydroxy-2-(4-methyl-1-oxo-1,3-dihydro-2-benzofuran-5-yl)ethyl]-2,8-diazaspiro[4.5]decan-3-one hydrochloride] | 0.101 |
| Cc1c([C@@H](O)CN2CCC3(CC2)CN(c2cnc(S(C)(=O)=O)cn2)C3)ccc2c1COC2=O [Example 49, (R)-5-(1-Hydroxy-2-(2-(5-(methylsulfonyl)pyrazin-2-yl)-2,7-diazaspiro[3.5]nonan-7-yl)ethyl)-4-methylisobenzofuran-1(3H)-one] | 0.118 |
| COc1cc(C(O)CN2CCC3(CC2)CCN(c2ccc(S(C)(=O)=O)cn2)C3)c(Cl)cc1C#N (stereo not shown) [Example 40, 5-Chloro-4-(1-hydroxy-2-(2-(5-(methylsulfonyl)pyridin-2-yl)-2,8-diazaspiro[4.5]decan-8-yl)ethyl)-2-methoxybenzonitrile] | 0.168 |
| Cc1c([C@@H](O)CN2CCC3(CC2)CN(c2ccc(S(C)(=O)=O)nc2)CCO3)ccc2c1COC2=O [Example 99, (R)-5-(1-Hydroxy-2-(4-(6-(methylsulfonyl)pyridin-3-yl)-1-oxa-4,9-diazaspiro[5.5]undecan-9-yl)ethyl)-4-methylisobenzofuran-1(3H)-one] | 0.168 |
| Cc1cc(N2CCC3(CCN(C[C@H](O)c4ccc5c(c4C)COC5=O)CC3)C2)cnc1S(C)(=O)=O [Example 23, (R)-5-(1-Hydroxy-2-(2-(5-methyl-6-(methylsulfonyl)pyridin-3-yl)-2,8-diazaspiro[4.5]decan-8-yl)ethyl)-4-methylisobenzofuran-1(3H)-one] | 0.135 |
| N#Cc1ccc(N2CCC3(CCN(CC(O)c4cc5c(cc4C4CC4)C(=O)OC5)CC3)C2)nc1 (stereo not shown) [Example 25, 6-(8-(2-(6-Cyclopropyl-1-oxo-1,3-dihydroisobenzofuran-5-yl)-2-hydroxyethyl)-2,8-diazaspiro[4.5]decan-2-yl)nicotinonitrile] | 0.0744 |
| Cc1c(C(O)CN2CCC3(CC2)CCN(c2nccnc2C#N)CC3)ccc2c1COC2=O (stereo not shown) [Example 110] | 0.135 |
| Cc1c([C@@H](O)CN2CCC3(CC2)CC(=O)N(c2ccc(-n4cnnn4)c(F)c2)C3)ccc2c1COC2=O [Example 69, 2-[3-Fluoro-4-(1H-tetrazol-1-yl)phenyl]-8-[(2R)-2-hydroxy-2-(4-methyl-1-oxo-1,3-dihydro-2-benzofuran-5-yl)ethyl]-2,8-diazaspiro[4.5]decan-3-one hydrochloride] | 0.173 |

Now those with a lower IC50, led by results:

| IC50 [µM] | Structure (SMILES) |
| --- | --- |
| 0.019 | Cc1c([C@@H](O)CN2CCC3(CCN(c4ccc(C#N)cn4)CC3)C2)ccc2c1COC2=O [Example 53, (R)-6-(2-(2-Hydroxy-2-(4-methyl-1-oxo-1,3-dihydroisobenzofuran-5-yl)ethyl)-2,8-diazaspiro[4.5]decan-8-yl)nicotinonitrile] |
| 0.0699 | C[C@@H]1Cc2cc(C(O)CN3CCC4(CC3)CN(c3ccc(C#N)cn3)C4)ccc2C(=O)O1 (stereo partly drawn) [Example 52B, 6-(7-(2-Hydroxy-2-((R)-3-methyl-1-oxoisochroman-6-yl)ethyl)-2,7-diazaspiro[3.5]nonan-2-yl)nicotinonitrile] |
| 0.057 | Cc1c([C@@H](O)CN2CCC3(CC2)CCN(c2ncc(-n4cnnn4)cn2)C3)ccc2c1COC2=O [Example 15, (R)-5-(2-(2-(5-(1H-tetrazol-1-yl)pyrimidin-2-yl)-2,8-diazaspiro[4.5]decan-8-yl)-1-hydroxyethyl)-4-methylisobenzofuran-1(3H)-one] |
| 0.0592 | Cc1c([C@@H](O)CN2CCC3(CC2)CCN(c2ccc(S(C)(=O)=O)nn2)C3=O)ccc2c1COC2=O [Example 57, (R)-8-(2-Hydroxy-2-(4-methyl-1-oxo-1,3-dihydroisobenzofuran-5-yl)ethyl)-2-(6-(methylsulfonyl)pyridazin-3-yl)-2,8-diazaspiro[4.5]decan-1-one] |
| 0.0613 | CN[C@@H](CN1CCC2(CC1)CCN(c1ccc(C#N)cn1)C2)c1ccc2c(c1C)COC2=O [Example 77, (R)-6-(8-(2-(4-methyl-1-oxo-1,3-dihydroisobenzofuran-5-yl)-2-(methylamino)ethyl)-2,8-diazaspiro[4.5]decan-2-yl)nicotinonitrile] |
| 0.0047 | Cc1c([C@@H](O)CN2CCC3(CC2)CCN(c2cnc(C#N)cn2)C3)ccc2c1COC2=O [Example 83] |
| 0.0396 | Cc1c([C@@H](O)CN2CCC3(CC2)CN(c2ccc(C#N)cn2)CCO3)ccc2c1COC2=O [Example 101, (R)-6-(9-(2-Hydroxy-2-(4-methyl-1-oxo-1,3-dihydroisobenzofuran-5-yl)ethyl)-1-oxa-4,9-diazaspiro[5.5]undecan-4-yl)nicotinonitrile] |
| 0.0504 | COc1cc(C#N)ccc1N1CCC2(CCN(C[C@H](O)c3ccc4c(c3C)COC4=O)CC2)C1 [Example 86] |
| 0.012 | Cc1c(CCN2CCC3(CC2)CC(=O)N(c2ccc(C#N)cn2)C3)ccc2c1COC2=O [Example 4, 6-(8-(2-(4-methyl-1-oxo-1,3-dihydroisobenzofuran-5-yl)ethyl)-3-oxo-2,8-diazaspiro[4.5]decan-2-yl)nicotinonitrile] |
| 0.037 | Cc1c([C@@H](O)CN2CCC3(CCCN(c4ncc(-n5cnnn5)cn4)C3)CC2)ccc2c1COC2=O [Example 43, (R)-5-(2-(2-(5-(1H-tetrazol-1-yl)pyrimidin-2-yl)-2,9-diazaspiro[5.5]undecan-9-yl)-1-hydroxyethyl)-4-methylisobenzofuran-1(3H)-one] |
| 0.0141 | Cc1c([C@@H](N)CN2CCC3(CC2)CCN(c2ccc(C#N)cn2)C3)ccc2c1COC2=O [Example 79, (R)-6-(8-(2-amino-2-(4-methyl-1-oxo-1,3-dihydroisobenzofuran-5-yl)ethyl)-2,8-diazaspiro[4.5]decan-2-yl)nicotinonitrile] |
| 0.0635 | Cc1c([C@@H](O)CN2CCC3(CC2)CCN(c2ccc(-n4ccnn4)cc2)C3)ccc2c1COC2=O [Example 80] |
| 0.0314 | Cc1cc2c(cc1C(O)CN1CCC3(CC1)CCN(c1ccc(C#N)cn1)C3)COC2=O (single isomer, unassigned) [Example 24B, 6-(8-(2-Hydroxy-2-(6-methyl-1-oxo-1,3-dihydroisobenzofuran-5-yl)ethyl)-2,8-diazaspiro[4.5]decan-2-yl)nicotinonitrile] |
| 0.00962 | Cc1c(C(O)CN2CCC3(CC2)CCN(c2cnc(C#N)cn2)CC3)ccc2c1COC2=O (stereo not shown) [Example 111] |
| 0.0441 | Cc1c([C@@H](O)CN2CCC3(CC2)CCN(c2cnc(S(C)(=O)=O)cn2)C3)ccc2c1COC2=O [Example 33, (R)-5-(1-Hydroxy-2-(2-(5-(methylsulfonyl)pyrazin-2-yl)-2,8-diazaspiro[4.5]decan-8-yl)ethyl)-4-methylisobenzofuran-1(3H)-one] |
